Laboratory results published in patent publication US10023519B2, “Cyclobutane containing carboxylic acid GPR120 modulators” (BRISTOL-MYERS SQUIBB COMPANY, priority 2014, dated 2018).

target: human GPR120 (Homo sapiens (Human), UniProt Q5NUL3); assay: GPR120 pERK AlphaScreen SureFire Assay (human); assay type: cell-based; details: CHO cells stably transfected with short form of human GPR120
From the text: GPR120 activity was monitored by measuring phosphorylation of ERK (pERK), since G protein receptors are known to activate the ERK signaling cascade either directly and/or through recruitment of arrestin that serves as a scaffold for downstream signaling events.
GPR120 pERK AlphaScreen SureFire Assay
The human and mouse GPR120-mediated intracellular phosphorylated ERK assays were established using CHOA12 cells stably transfected with the short form of human or mouse GPR120 receptor. […] Cells were cryo preserved at a concentration of 2×10^7 cells/mL, in 90% Charcoal/Dextran FBS and 10% DMSO, and frozen in liquid nitrogen at a low passage number.
The flasks were placed in a tissue culture incubator overnight (37° C., 5% CO2). […] The next day, cells were serum starved in 30 μL of F-12 media without any serum or antibiotics for 2 hours at 37° C.
Cells were then stimulated with 50 nL of compound dilutions using ECHO liquid handler for 7 minutes at 37° C.
(§1) The lysis buffer was diluted 5-fold with water before use. […] The SureFire assay reagent mix was prepared by mixing 60 parts Reaction Buffer, 10 parts Activation Buffer, 1 part Donor Beads, 1 part Acceptor Beads (Perkin Elmer Cat. #TGRES10K). 3.5 μL/well of this reagent mix was manually added to the proxiplate with a multichannel pipettor. Plates were spun down at 1000 rpm for 2 minutes, followed by light-protected incubation at room temperature for 2 hours. The plates were read on the Alpha-technology compatible Envision multilabel plate reader using AlphaScreen protocol according to manufacturer's specifications. The agonist effect of compounds was expressed as 100× (average sample−average blank)/(average total−average blank) where sample is the luminescence activity in the presence of test compound, blank is equal to the luminescence activity in the presence of DMSO control and the total is signal induced by 50 μM linolenic acid as reference compound. Activation data for the test compound over a range of concentrations was plotted as percentage activation of the test compound (100%=maximum response). After correcting for background, EC50 values were determined.
The human and mouse GPR120-mediated intracellular phosphorylated ERK assays were also established using CHO-K1 cells stably transfected with the short form of human or mouse GPR120 receptor. […] Cells were cryo preserved at a concentration of 3×10^6 cells/mL, in 70% F-12, 20% Charcoal/Dextran FBS and 10% DMSO, and frozen in liquid nitrogen at a low passage number.
The flasks were placed in a tissue culture incubator overnight (37° C., 5% CO2).
Cells were then stimulated with 40 nL of compound dilutions using ECHO liquid handler for 7 minutes at 37° C.
as §1, with “compound.” for “compound. Activation data for the test compound over a range of concentrations was plotted as percentage activation of the test compound (100%=maximum response). After correcting for background, EC50 values were determined.”
Activation data for the test compound over a range of concentrations was plotted as percentage activation of the test compound (100%=maximum response). After correcting for background, EC50 values were determined.

human GPR120, sequence (Q5NUL3 whole entry): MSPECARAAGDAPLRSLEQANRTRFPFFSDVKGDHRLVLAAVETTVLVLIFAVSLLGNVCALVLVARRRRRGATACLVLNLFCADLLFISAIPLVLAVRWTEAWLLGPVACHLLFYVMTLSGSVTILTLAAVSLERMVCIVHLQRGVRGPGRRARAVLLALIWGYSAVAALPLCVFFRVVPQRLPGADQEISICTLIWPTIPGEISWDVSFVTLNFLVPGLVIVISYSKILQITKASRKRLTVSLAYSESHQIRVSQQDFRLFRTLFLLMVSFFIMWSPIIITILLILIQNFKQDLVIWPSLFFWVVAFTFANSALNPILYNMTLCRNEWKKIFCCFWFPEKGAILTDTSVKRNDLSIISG

In order of falling EC50:
1. Cc1ccc(Oc2ccc(F)c(-c3ccc([C@H]4C[C@@H](OCC(=O)O)C4)cc3)c2)nn1 [Example 29, Cis-2-(3-(2′-fluoro-5′-((6-methylpyridazin-3-yl)oxy)-[1,1′-biphenyl]-4-yl)cyclobutoxy)acetic acid]  5000 nM
2. COC1(c2cccc(Oc3ccccc3)c2)CC(CCCOCC(=O)O)C1 (centres unmarked) [Example 68, 2-(3-(3-Methoxy-3-(3-phenoxyphenyl)cyclobutyl)propoxy)acetic acid]  2800 nM
3. CC(C)Oc1ccc(F)c(-c2ccc(C3CC4(C3)CC4C(=O)O)cc2)c1 (single isomer, unassigned) [Example 42, 5-(2′-Fluoro-5′-isopropoxy-[1,1′-biphenyl]-4-yl)spiro[2.3]hexane-1-carboxylic acid]  2210 nM
4. O=C(O)CO[C@H]1C[C@@H](c2ccc(-c3cccc(Cc4ccccc4)c3)cc2)C1 [Example 9, Cis-2-(3-(3′-benzyl-[1,1′-biphenyl]-4-yl)cyclobutoxy)acetic acid]  1590 nM
5. CC(C)Oc1ccc(F)c(-c2ccc(C[C@H]3C[C@H](CC(=O)O)C3)cc2)c1 [Example 52, 2-(Trans-3-((2′-fluoro-5′-isopropoxy-[1,1′-biphenyl]-4-yl)methyl)cyclobutyl)acetic acid]  940 nM
6. O=C(O)CO[C@H]1C[C@@H](c2ccc(-c3cccc(C(=O)c4ccccc4)c3)cc2)C1 [Example 14, Cis-2-(3-(3′-benzoyl-[1,1′-biphenyl]-4-yl)cyclobutoxy) acetic acid]  830 nM
7. O=C(O)CO[C@H]1C[C@@H](c2ccc(-c3cc(OC4CCCCC4)ccc3F)cc2)C1 [Example 33, Cis-2-(3-(5′-(cyclohexyloxy)-2′-fluoro-[1,1′-biphenyl]-4-yl)cyclobutoxy)acetic acid]  760 nM
8. Cc1ccc(Oc2ccc(F)c(-c3ccc([C@H]4C[C@@H](OCC(=O)O)C4)cc3)c2)cc1 [Example 31, Cis-2-(3-(2′-fluoro-5′-(p-tolyloxy)-[1,1′-biphenyl]-4-yl)cyclobutoxy)acetic acid]  710 nM
9. O=C(O)COCCC1CC(OCc2cccc(Oc3ccccc3)c2)C1 (centres unmarked) [Example 57, 2-(2-(3-(3-Phenoxybenzyloxy)cyclobutyl)ethoxy)acetic acid]  700 nM
10. CC(C)Oc1ccc(F)c(-c2ccc([C@H]3C[C@@H](CCC(=O)O)C3)cc2)c1 [Example 46, Cis-3-(3-(2′-fluoro-5′-isopropoxy-[1,1′-biphenyl]-4-yl)cyclobutyl)propanoic acid]  650 nM
11. CC(C)Oc1ccc(F)c(-c2ccc(CC3CC(CC(=O)O)C3)cc2)c1 (centres unmarked) [Example 50, 2-(3-((2′-Fluoro-5′-isopropoxy-[1,1′-biphenyl]-4-yl)methyl)cyclobutyl)acetic acid]  650 nM
12. CC(C)Oc1cccc(-c2ccc([C@H]3C[C@@H](OCC(=O)O)C3)cc2)c1 [Example 7, Cis-2-(3-(3′-isopropoxy-[1,1′-biphenyl]-4-yl)cyclobutoxy) acetic acid]  590 nM
13. Cis-2-(3-(2′,3′-difluoro- 5′-(3- fluorophenoxy)-[1,1′- biphenyl]-4-yl)cyclobutoxy) acetic acid [Example 37]  590 nM
14. C[C@]1(CCCOCCC(=O)O)C[C@@H](c2cccc(Oc3ccccc3)c2)C1 [Example 62, 3-(3-(Cis-1-methyl-3-(3-phenoxyphenyl)cyclobutyl)propoxy)propanoic acid]  570 nM
15. CC(C)Oc1cc(Cl)cc(-c2ccc([C@H]3C[C@@H](OCC(=O)O)C3)cc2)c1 [Example 11, Cis-2-(3-(3′-chloro-5′-isopropoxy-[1,1′-biphenyl]-4-yl)cyclobutoxy) acetic acid]  560 nM
16. CC(C)Oc1ccc(F)c(-c2ccc(C[C@H]3C[C@@H](CC(=O)O)C3)cc2)c1 [Example 51, 2-(Cis-3-((2′-fluoro-5′-isopropoxy-[1,1′-biphenyl]-4-yl)methyl)cyclobutyl)acetic acid]  560 nM
17. O=C(O)CO[C@H]1C[C@@H](c2ccc(-c3cc(OC(F)(F)F)ccc3F)cc2)C1 [Example 17, Cis-2-(3-(2′-fluoro-5′-(trifluoromethoxy)-[1,1′-biphenyl]-4-yl)cyclobutoxy)acetic acid]  550 nM
18. Cc1ccc(Oc2cc(F)c(F)c(-c3ccc([C@H]4C[C@@H](OCC(=O)O)C4)cc3)c2)cc1 [Example 38, Cis-2-(3-(2′,3′-difluoro-5′-(p-tolyloxy)-[1,1′-biphenyl]-4-yl)cyclobutoxy)acetic acid]  540 nM
19. CC(C)Oc1ccc(F)c(-c2ccc([C@H]3C[C@@H](OCC(=O)O)C3)cc2)c1 [Example 2, Cis-2-(3-(2′-fluoro-5′-isopropoxy-[1,1′-biphenyl]-4-yl)cyclobutoxy)acetic acid]  530 nM
20. CC(C)Oc1ccc(F)c(-c2ccc(CC3CC(C(=O)O)C3)cc2)c1 (single isomer, unassigned) [Example 49, 3-((2′-Fluoro-5′-isopropoxy-[1,1′-biphenyl]-4-yl)methyl)cyclobutanecarboxylic acid]  500 nM
21. O=C(O)CCOC[C@H]1C[C@@H](OCc2cccc(Oc3ccccc3)c2)C1 [Example 55, 3-((Cis-3-(3-phenoxybenzyloxy)cyclobutyl)methoxy)propanoic acid]  470 nM
22. Cc1ncc(Oc2ccc(F)c(-c3ccc([C@H]4C[C@@H](OCC(=O)O)C4)cc3)c2)s1 [Example 27, Cis-2-(3-(2′-fluoro-5′-((2-methylthiazol-5-yl)oxy)-[1,1′-biphenyl]-4-yl)cyclobutoxy)acetic acid]  420 nM
23. O=C(O)COCCC[C@H]1C[C@@H](c2cccc(Oc3ccccc3)c2)C1 [Example 58, 2-(3-(Cis-3-(3-phenoxyphenyl)cyclobutyl)propoxy)acetic acid]  420 nM
24. O=C(O)CO[C@H]1C[C@@H](c2ccc(-c3cc(OC4CCCC4)ccc3F)cc2)C1 [Example 3, Cis-2-(3-(5′-(cyclopentyloxy)-2′-fluoro-[1,1′-biphenyl]-4-yl)cyclobutoxy)acetic acid]  410 nM
25. O=C(O)CO[C@H]1C[C@H](c2ccc(-c3cc(Oc4ccccc4)ccc3F)cc2)C1 [Example 39, Trans-2-(3-(2′-fluoro-5′-phenoxy-[1,1′-biphenyl]-4-yl)cyclobutoxy)acetic acid]  410 nM
26. Cc1ccc(Oc2cc(F)c(F)c(-c3ccc([C@H]4C[C@@H](OCC(=O)O)C4)cc3)c2)cc1F [Example 35, Cis-2-(3-(2′,3′-difluoro-5′-(3-fluoro-4-methylphenoxy)-[1,1′-biphenyl]-4-yl)cyclobutoxy)acetic acid]  290 nM
27. O=C(O)CO[C@H]1C[C@@H](c2ccc(-c3cc(Oc4ccc(F)cc4)cc(F)c3F)cc2)C1 [Example 34, Cis-2-(3-(2′,3′-difluoro-5′-(4-fluorophenoxy)-[1,1′-biphenyl]-4-yl)cyclobutoxy)acetic acid]  240 nM
28. O=C(O)CO[C@H]1C[C@@H](c2ccc(-c3cc(Oc4cccc(F)c4)ccc3F)cc2)C1 [Example 32, Cis-2-(3-(2′-fluoro-5′-(3-fluorophenoxy)-[1,1′-biphenyl]-4-yl)cyclobutoxy)acetic acid]  230 nM
29. C[C@]1(CCCOCC(=O)O)C[C@H](c2cccc(Oc3ccccc3)c2)C1 [Example 61, 2-(3-(Trans-1-methyl-3-(3-phenoxyphenyl)cyclobutyl)propoxy)acetic acid]  150 nM
30. CC(C)Oc1ccc(F)c(-c2ccc([C@H]3C[C@H](CC(=O)O)C3)cc2)c1 [Example 44, 2-(Trans-3-(2′-fluoro-5′-isopropoxy-[1,1′-biphenyl]-4-yl)cyclobutyl)acetic acid]  140 nM
31. CC(C)Oc1ccc(F)c(-c2ccc([C@H]3C[C@@H](CC(=O)O)C3)cc2)c1 [Example 45, 2-(Cis-3-(2′-fluoro-5′-isopropoxy-[1,1′-biphenyl]-4-yl)cyclobutyl)acetic acid]  120 nM
32. O=C(O)C[C@H]1C[C@H](Oc2ccc(-c3cc(Oc4ccccc4)ccc3F)cc2)C1 [Example 66, Trans-2-(3-((2′-fluoro-5′-phenoxy-[1,1′-biphenyl]-4-yl)oxy)cyclobutyl)acetic acid]  110 nM
